Experimental data as given in patent publication US8987284B2, “Phosphorus containing quinazoline compounds and methods of use” (Newgen Therapeutics, Inc., priority 2009, dated 2015).
Read-outs that look alike come from different tables or passages of the source.

Legend:
EGFR kinase = molecular target: T1, EGFR kinase (Homo sapiens, UniProt P00533); assay: Kinase assay for EGFR (TR-FRET LanthaScreen); format: biochemical; details: % inhibition at 100 nM or IC50 (nM)
T1 construct: purchased Invitrogen PV3872
Procedure: The extent to which the compounds of the present invention modulate EGFR kinase activity can be determined using time-resolved Fret (TR-FRET) assay (LanthaScreen® kinase activity assay, from Invitrogen). The assay employs EGFR kinase (PV3872, Invitrogen), Tb-Py20 antibody (PV3552, Invitrogen) and fluorescein-poly GT (PV3610, In vitrogen)
The assay is performed in a Black 384-well plate (available from Corning). EGFR kinase (is diluted in TR-FRET Dilution Buffer (PV3189, InVitrogen) at concentration of 0.4 ug/ml as stock solution, and then 2-fold serial diluted. Addition of 1 mM ATP initiated the reaction, and the reaction is incubated for 1 h reaction at room temperature. 10 μL of the Tb-antibody (from Invitrogen)+EDTA (from Invitrogen) solution prepared was added to each well of the assay plate and mix briefly, and incubated for 30 min. The signal is monitored by using M5 microplate reader (Ex=332 nm, Em=488 nm and 518 nm). Each compound is tested in duplicate wells. EGFR without compound is used as control. Staurosporine (available from Sigma) is used as positive control compound. Inhibition was calculated as percentage of the EGFR activity (without compound)

[1] = Pharmacokinetic study in dog; format: in vivo, Beagle dogs; design: clearance: unit not given here; details: for AUC(0-inf): read-out: AUC0-inf-obs; for half-life: read-out: T½ (converted)
Procedure: (§1) The dog PK protocol is shown here, while PK study protocol of mouse and rat are similar to dog. Beagle dogs of this study were 6-8 month old and weighed 8 to 10 kg. Example 4 was dissolved in 2% DMA and 98% (40% HP-β-CD in deionized water) to yield concentration at 2 mg/mL for both intravenous (IV, a bolus injection via the lateral tail vein) and oral (PO, via oral gavage) administrations. Blood samples (approximately 1 ml) was collected via cephalic into tubes containing EDTA-K3 anticoagulant pre-dose and post-dose at 5 min, 15 min, 30 min, 1 h, 2 h, 4 h, 6 h, 8 h and 24 h. Blood samples were centrifuged at approximately 8000 rpm for 6 minutes at 2-8° C. and the resulting plasma were separated, labeled and stored frozen at approximately −80° C. Plasma samples analysis was performed by means of LC-MS/MS. The analytical results were confirmed using quality control samples for intra-assay variation.

BT474 cells = assay: Cell proliferation inhibition assay for BT474 (CCK-8); format: cell-based; details: Homo sapiens, BT-474; 72 h, 8 points
Procedure: Human breast cancer BT474 cells was cultured in low glucose DMEM (Life Technologies 12320-032) containing 10% fetal bovine serum (FBS) at 37° C. in a humidified 10% CO2, 90% air incubator. Cells were harvested using trypsin/EDTA, counted using a haemocytometer, and plated 10000 cell/well in a 96-well clear tissue culture plate. The cells were incubated for 24 h at 37° C. to allow adherence. A serials of concentrations of each compound (ranging from 30 uM to […], 5-fold dilution) in 96-well plate, and incubated for 72 h. Each concentration was tested in triplicate wells. During the cell proliferation assay, BT474 cells were cultured in low-glucose DMEM containing 5% FBS, 50 ug/ml gentamicin, and 0.3% v/v DMSO. The culture medium was removed via aspiration, and the cell viability was detected by using CCK-8 cell proliferation kit.

[2] = Pharmacokinetic study in mouse; format: in vivo; design: clearance: unit not given here; details: for AUC(0-inf): read-out: AUC0-inf-obs; for half-life: read-out: T½ (converted)
Procedure: as §1

NCI-N87 xenograft = assay: Anticancer effect against NCI-N87 xenograft; format: in vivo, Balb/c nude mice
Procedure: (§2) NCI-N87 cells were purchased from ATCC, and were cultured in RPMI1640+10% FBS+1% P/S antibiotics. Balb/c nude mice were male, 6-8 week old, and weighed 18^±2 g. The cells were implanted subcutaneously into the nude mice (right flank) with 5.0×10^6 cells in 0.1 ml PBS. When the tumor size reached a volume of 200 (150-200) mm^3, the tumor-bearing nude mice derived from NCI-N87 cells were randomly assigned into four groups (10 mice/group). All groups were dosed oral, BID. One group were dosed with vehicle, one group with Lapatinib (75 mg/kg of free base, in the form of ditosylate monoydrate), and the rest two groups with Example 4 (50, 100 mg/kg, p.o. Bid, respectively). The administration period lasted 4 weeks. The tumor volume were measured twice a week, and the body weight were measured immediately before measuring the tumor volume throughout the whole study. On day 11 after initiation of the treatment, the dosing of Example 4 at 100 mg/kg was suspended, and the dosing of the group was resumed on day 15 at a reduced dose of 75 mg/Kg. […] (See FIG. 1).

[3] = Pharmacokinetic study in rat; format: in vivo; design: clearance: unit not given here; details: for AUC(0-inf): read-out: AUC0-inf-obs; for half-life: read-out: T½ (converted)
Procedure: as §1

[4] = Body weight change of NCI-N87 xenograft mice; format: in vivo, Balb/c nude mice; details: po
Procedure: as §2, with “study.” for “study. On day 11 after initiation of the treatment, the dosing of Example 4 at 100 mg/kg was suspended, and the dosing of the group was resumed on day 15 at a reduced dose of 75 mg/Kg.”

[5] = rat; cited from earlier work
[6] = mouse; cited from earlier work
[7] = dog; cited from earlier work
[8] = plasma, IV, 2 mg/Kg, read-out: Vz

T1 sequence (P00533 25-1210): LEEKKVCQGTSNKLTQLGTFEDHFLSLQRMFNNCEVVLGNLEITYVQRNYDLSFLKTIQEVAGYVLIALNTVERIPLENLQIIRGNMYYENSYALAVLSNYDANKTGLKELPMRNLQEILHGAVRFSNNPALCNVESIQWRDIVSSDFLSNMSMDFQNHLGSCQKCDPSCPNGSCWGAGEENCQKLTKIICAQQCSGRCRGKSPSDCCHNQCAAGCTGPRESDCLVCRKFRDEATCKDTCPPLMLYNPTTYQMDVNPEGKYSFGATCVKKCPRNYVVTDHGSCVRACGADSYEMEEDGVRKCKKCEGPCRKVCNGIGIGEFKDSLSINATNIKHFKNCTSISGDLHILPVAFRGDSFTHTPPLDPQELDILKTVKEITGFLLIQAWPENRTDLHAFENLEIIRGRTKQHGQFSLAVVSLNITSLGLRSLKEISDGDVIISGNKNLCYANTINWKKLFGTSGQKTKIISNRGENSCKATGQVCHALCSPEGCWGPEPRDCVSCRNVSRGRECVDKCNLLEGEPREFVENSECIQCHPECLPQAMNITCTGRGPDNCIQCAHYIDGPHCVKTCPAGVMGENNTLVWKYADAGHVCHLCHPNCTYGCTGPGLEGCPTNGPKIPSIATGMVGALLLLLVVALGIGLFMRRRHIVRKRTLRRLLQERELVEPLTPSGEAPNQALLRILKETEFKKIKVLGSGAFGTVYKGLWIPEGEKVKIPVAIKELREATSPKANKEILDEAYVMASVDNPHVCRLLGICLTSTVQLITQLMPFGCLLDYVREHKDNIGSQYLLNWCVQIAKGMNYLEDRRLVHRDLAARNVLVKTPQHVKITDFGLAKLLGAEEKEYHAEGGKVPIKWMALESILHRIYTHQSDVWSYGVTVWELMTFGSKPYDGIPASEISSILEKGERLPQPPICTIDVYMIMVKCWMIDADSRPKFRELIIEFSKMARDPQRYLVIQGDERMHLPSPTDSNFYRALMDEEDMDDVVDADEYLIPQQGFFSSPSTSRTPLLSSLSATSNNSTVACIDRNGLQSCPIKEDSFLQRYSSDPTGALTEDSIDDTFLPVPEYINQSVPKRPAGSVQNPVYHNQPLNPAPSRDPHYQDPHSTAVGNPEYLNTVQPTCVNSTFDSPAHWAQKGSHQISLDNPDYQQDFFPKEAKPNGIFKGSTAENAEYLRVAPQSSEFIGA

CP1(=O)CCN(CC#Cc2ccc3ncnc(Nc4ccc(OCc5cccc(F)c5)c(Cl)c4)c3c2)CC1 [Example 4, N-(3-chloro-4-(3-fluorobenzyloxy)phenyl)-6-(3-(4-methyl-1,4-azaphosphino-1-yl)prop-1-ynyl)quinazolin-4-amine]
EGFR inhibition inhibit % at 100 nM or IC50 (nM) (EGFR kinase): ++ (>50% inhibition at 100 nM, or IC50 <100 nM for EGFR or ErbB2 kinases)
F ([1]; PO, 10 mg/Kg): 100%
AUC(0-t) ([1]; beagle, plasma, IV, 2 mg/Kg): 1.48 µg·h/mL
Cmax ([1]; beagle, plasma, IV, 2 mg/Kg): 1.15 µg/mL
clearance ([1]; beagle, plasma, IV, 2 mg/Kg): 22.3
AUC(0-inf) ([1]; beagle, plasma, IV, 2 mg/Kg): 1.49 µg·h/mL
half-life ([1]; beagle, plasma, IV, 2 mg/Kg): 2.46 h
Vd ([1]; beagle, plasma, IV, 2 mg/Kg, read-out: Vz): 1.44 L
AUC(0-t) ([1]; beagle, plasma, PO, 10 mg/Kg): 7.64 µg·h/mL
Cmax ([1]; beagle, plasma, PO, 10 mg/Kg): 2.38 µg/mL
AUC(0-inf) ([1]; beagle, plasma, PO, 10 mg/Kg): 7.72 µg·h/mL
half-life ([1]; beagle, plasma, PO, 10 mg/Kg): 3.8 h
IC50 (BT474 cells): < 100 nM
F ([2]; PO, 10 mg/Kg): 36%
AUC(0-t) ([2]; plasma, IV, 2 mg/Kg): 5.07 µg·h/mL
Cmax ([2]; plasma, IV, 2 mg/Kg): 1.52 µg/mL
clearance ([2]; plasma, IV, 2 mg/Kg): 6.5
AUC(0-inf) ([2]; plasma, IV, 2 mg/Kg): 5.08 µg·h/mL
half-life ([2]; plasma, IV, 2 mg/Kg): 0.59 h
Vd [2, 8]: 0.33 L
AUC(0-t) ([2]; plasma, PO, 10 mg/Kg): 8.83 µg·h/mL
Cmax ([2]; plasma, PO, 10 mg/Kg): 2.84 µg/mL
AUC(0-inf) ([2]; plasma, PO, 10 mg/Kg): 9.06 µg·h/mL
half-life ([2]; plasma, PO, 10 mg/Kg): 1.41 h
tumor growth inhibition rate (NCI-N87 xenograft; 50 mg/Kg, p.o. BID, 4 weeks): 85%
tumor growth inhibition rate (NCI-N87 xenograft; 100/75 mg/Kg, p.o. BID, 4 weeks (suspended, resumed at 75 mg/Kg)): 88%
F ([3]; PO, 10 mg/Kg): 89.6%
AUC(0-t) ([3]; plasma, IV, 2 mg/Kg): 2.13 µg·h/mL
Cmax ([3]; plasma, IV, 2 mg/Kg): 1.57 µg/mL
clearance ([3]; plasma, IV, 2 mg/Kg): 15.3
AUC(0-inf) ([3]; plasma, IV, 2 mg/Kg): 2.18 µg·h/mL
half-life ([3]; plasma, IV, 2 mg/Kg): 19.9 h
Vd [3, 8]: 7.92 L
AUC(0-t) ([3]; plasma, PO, 10 mg/Kg): 9.7 µg·h/mL
Cmax ([3]; plasma, PO, 10 mg/Kg): 1.8 µg/mL
AUC(0-inf) ([3]; plasma, PO, 10 mg/Kg): 9.78 µg·h/mL
half-life ([3]; plasma, PO, 10 mg/Kg): 11.5 h
body weight loss (average) ([4]; 100 mg/Kg, bid, day 10): 16.9%
body weight after dosing suspension and resumption ([4]; suspension for 3 days, resumed at 75 mg/kg): recovered and remained normal

CS(=O)(=O)CCNCc1ccc(-c2ccc3ncnc(Nc4ccc(OCc5cccc(F)c5)c(Cl)c4)c3c2)o1 [lapatinib, Lapatinib]
oral bioavailability (F) [5]: 29%
oral bioavailability (F) [6]: 32%
oral bioavailability (F) [7]: 63%
tumor growth inhibition rate (NCI-N87 xenograft; 75 mg/Kg of free base, oral BID, 4 weeks): 48%
